“Also recorded” adds a separate entry of the source.
Columns and labels:
HGK = biological target: T1, HGK (Homo sapiens, UniProt O95819); assay: HGK immune complex kinase assay (recombinant FLAG-HGK in cardiomyocytes); format: cell-based; conditions: for HGK activity after agonist: 50 μg/ml C2-ceramide, 200 μM H2O2
T1 construct: expressed in transfected cells
Description: HGK was alternatively spliced, with the presence or absence of an SH3-like domain being one potentially important difference. […] Dominant-negative, FLAG-tagged JNK1 (JNK1 APF). Viruses were engineered using pAd-Easy-1 and pShuttleCMV. Adenoviruses encoding wild-type and dominant-negative TRF2 were constructed analogously (Oh et al., 2003), using cDNAs.
For HGK immune complex kinase assays, recombinant HGK was precipitated using M2 antibody and protein G-Sepharose, in the lysis buffer above. Precipitates were washed twice in lysis buffer, twice with 500 mM LiCl, 100 mM Tris-HCl, pH 7.6, 0.1% Triton X-100, and twice with kinase buffer (20 mM MOPS, pH 7.6, 2 mM EGTA, 10 mM MgCl2, 1 mM dithiothreitol, 0.1% Triton X-100, 1 mM Na3VO4), then were mixed with 10 μg of myelin basic protein (MBP) (Invitrogen, Carlsbad, Calif.), as substrate, 15 μM ATP, and 10 μCi [γ-^32P]ATP in 30 μl of kinase buffer for 30 min at 30° C. (Yao et al., 1999). Reaction mixtures were resolved by SDS-polyacrylamide gel electrophoresis, then were analysed by autoradiography and Western blotting as above.

TRF2 [1] = assay: Western blot of TRF2 protein levels in cultured cardiomyocytes; format: cell-based, rat
Description: Ventricular myocytes from 2 day-old Sprague-Dawley rats were purified and cultured (Oh, H. et al., 2001; Akli, S. et al., 1999); by this age, ventricular myocytes become refractory to serum-induced Gl exit, after initial serum-starvation in vitro (Akli, S. et al., 1999). Plasmids for human TRF1, TRF2, and the corresponding dominant-negative truncations (TRF1DM, TRF2DBDM) were provided by Dr. Titia de Lange (Rockefeller University) (Karlseder, J. et al., 1999). Adenoviruses coexpressing enhanced green fluorescent protein (eGFP) were generated using pAdTrack-cytomegalovirus (CMV) and pShuttle-CMV (provided by Dr. Bert Vogelstein, Johns Hopkins Oncology Center) (Oh, H. et al., 2001; He, T. C., 1998). Myocytes were infected using a multiplicity of infection of 20. To visualize TRF1/2 after gene transfer, myocytes were fixed in 70% ethanol, then incubated sequentially with tetramethyl rhodamine isothiocyanate-conjugated MF-20 antibody to sarcomeric myosin heavy chains to confirm cell type (University of Iowa Hybridoma Bank), rabbit antibodies to TRF1 and TRF2 (#581420 and 581425; 1:500, Calbiochem) and fluorescein isothiocyanate (FITC)-conjugated goat antibody to rabbit IgG (1:1000, Sigma). Nuclei were stained with 4′,6-diamidino-2-phenylindole (DAPI). Images were captured using a Zeiss Axioplan 2 epifluorescence microscope.
Proteins were resolved by electrophoresis in 10% SDS-polyacrylamide gels and transferred to membranes by electroblotting. Antibodies were: human and mouse TRF2 (Calbiochem), human and mouse TRF1 (Calbiochem), phospho-Chk2 (Thr68; Cell Signaling), sarcomeric a-actin and myc (Sigmna), FLAG epitope (M2, Kodak), GFP (Clontech), Chk2 (Santa Cruz), poly (ADP-ribose) polymerase (PARP, Oncogene). To detect exogenous TRF2 in virus infected cardiomyocytes, goat and rabbit antibodies to TRF2 were used (C-16, H-300, Santa Cruz); endogenous rat TRF2 was detected using rabbit antibody to TRF2 (Alpha Diagnostic International). […]

cardiomyocytes = assay: Apoptosis as hypodiploid DNA by two-color flow cytometry in cultured cardiomyocytes; format: cell-based, rat
Description: Myocytes were infected using a multiplicity of infection of 20. […] Nuclei were stained with 4′,6-diamidino-2-phenylindole (DAPI). Images were captured using a Zeiss Axioplan 2 epifluorescence microscope.
Ventricular myocytes from 1 to 2 day-old Sprague-Dawley rats were enzymatically dissociated, then subjected to Percoll gradient centrifugation and preplating to enrich for cardiomyocytes. After overnight culture in medium with 10% horse serum, cells were infected at a multiplicity of infection of 10, then cultured in serum-free medium for 24 to 48 hr (Oh et al., 2003). Where indicated, C2-ceramide (N-acetyl-D-sphingosine; ICN, Costa Mesa, Calif.), 5 mg/ml in dimethylsulfoxide (DMSO), was added at a final concentration of 20-50 μg/ml.

[2] = test system: poly (ADP-ribose) polymerase (PARP); assay: PARP cleavage / total PARP by Western blot in cultured cardiomyocytes; format: cell-based, rat
Description: (§1) Proteins were resolved by electrophoresis in 10% SDS-polyacrylamide gels and transferred to membranes by electroblotting. Antibodies were: human and mouse TRF2 (Calbiochem), human and mouse TRF1 (Calbiochem), phospho-Chk2 (Thr68; Cell Signaling), sarcomeric a-actin and myc (Sigmna), FLAG epitope (M2, Kodak), GFP (Clontech), Chk2 (Santa Cruz), poly (ADP-ribose) polymerase (PARP, Oncogene). To detect exogenous TRF2 in virus infected cardiomyocytes, goat and rabbit antibodies to TRF2 were used (C-16, H-300, Santa Cruz); endogenous rat TRF2 was detected using rabbit antibody to TRF2 (Alpha Diagnostic International). After blocking with 5% non-fat milk plus 0.1% Tween-20, blots were incubated with primary antibodies (1:500), horseradish peroxidase-conjugated secondary antibodies (1:3000; Amersham Pharmacia Biotech), and enhanced chemiluminescence reagents (Amersham Pharmacia Biotech).
Cells were lysed in 20 mM HEPES, pH 7.4, 2 mM EGTA, 50 mM glycerophosphate, 1% Triton X-100, 10% glycerol, 1 mM dithiothreitol, 2 μg/ml leupeptin, 5 μg/ml aprotinin, 1 mM phenylmethylsulfonyl fluoride, 1 mM Na3VO4. Lysates were resolved by SDS-polyacrylamide gel electrophoresis and transferred to optitran (Schleicher & Schuell, Keene, N.H.) membranes for Western blotting. […]

telomere length [3] = assay: Telomere length by Southern blot with telomeric probe in cultured cardiomyocytes; format: cell-based, rat; conditions: gene transfer or treatment
Description: (§2) DNA was digested with Rsa I, resolved by electrophoresis in 0.5% agarose, transferred to Hybond-N^+ membranes (Amersham Pharmacia Biotech), and hybridized using a ^32P-labeled (TTAGGG)4 telomeric probe (Oh, H. et al., 2001; Counter, C. M., 1992). Mean telomere length was ascertained by Phosphor-Imager scanning (Molecular Dynamics).

[4] = test system: C57BI/6 mouse cardiomyocytes; assay: Apoptosis by flow cytometry after antisense transfection of mouse cardiomyocytes; format: cell-based; conditions: reduction of endogenous TRF2
Description: (§3) The sequences used were: antisense TRF2 (asTRF2), 5′-[…]-3′ (SEQ ID NO:21); sense TRF2 (sTRF2), 5′-[…]-3′ (SEQ ID NO:22), antisense GFP (Sano, M. et al., 2002), 5′-[…]-3′ (SEQ ID NO:23). Oligonucleotides were transfected into 1-2 day-old C57BI/6 mouse cardiomyocytes, cultured as above, using Oligofectamine (Invitrogen).
Hypodiploid DNA was detected by two-color flow cytometry using propidium iodide for DNA content and FITC-conjugated MF20 (Oh, H. et al., 2001; Akli, S. et al., 1999) or FITC-conjugated antibody to sarcomeric myosin heavy chains to confirm myocyte identity, sampling>5000 myocytes for each histogram.

TRF2 [5] = assay: Western blot of TRF2 after antisense oligonucleotide transfection of mouse cardiomyocytes; format: cell-based; conditions: Oligofectamine transfection
Description: as §3, §1

TRF2 [6] = assay: Endogenous TRF2 expression in NIH 3T3 cells after antisense oligonucleotide; format: cell-based, mouse; conditions: NIH 3T3 cells (not shown)
Chk2 = Chk2 immune complex kinase assay after antisense transfection of mouse cardiomyocytes; format: cell-based; conditions: reduction of endogenous TRF2
Procedure: as §3
To assay Chk2 activity, samples were lysed in 20 mM Tris-HCl (pH 8.0), 0.1% Triton X-100, 10 mM NaF, 1 mM NaVa3VO4, […], 1 mM PMSF, then incubated for 1 hr with antibody to Chk2 and protein A/G-Sepharose (Pharmacia). lmrunoprecipitates were washed and assayed in the presence of 30 μM CHKtide substrate peptide ([…] (SEQ ID NO:24), Upstate Biotechnology, Inc), 40 μM adenosine triphosphate, 15 μCi [γ-^32P]ATP, for 30 min at 30° C. Proteins were resolved by electrophoresis in SDS-polyacrylamide gels and visualized by autoradiography. Aliquots of Chk2 immunoprecipitates were also used for Western blotting, allowing activity and content to be compared in the same samples.

telomere length [7] = assay: Telomere length by Southern blot after antisense transfection of mouse cardiomyocytes; format: cell-based; conditions: reduction of endogenous TRF2
Description: as §3, §2

[8] = test system: poly (ADP-ribose) polymerase (PARP); assay: PARP cleavage by Western blot after antisense transfection of mouse cardiomyocytes; format: cell-based; conditions: reduction of endogenous TRF2
Description: as §3, §1

[9] = test system: αMHC-TRF2 mice and non-transgenic littermates; assay: Doxorubicin cardiomyopathy in αMHC-TRF2 mice and non-transgenic littermates; conditions: 15 mg/kg intraperitoneally
Procedure: Cardiac-specific transgenic mice were created by subcloning the TRF2 and dnTRF2 cDNAs behind the 5.5 kb mouse αMHC promoter (Subramaniam et al., 1991). The resultant plasmids were injected into the pronuclei of fertilized FVB/N oocytes, and tail DNA was used to screen for inheritance of the transgenes. Doppler and M-mode echocardiography were performed as described (Oh et al., 2003; and Minamino et al., 2002).
To test for cardiac protection, 10-12 week-old αLMHC-TRF2 mice (n=14) and non-transgenic littermates (n=14) were injected intraperitoneally with 15 mg/kg doxorubicin.

[10] = cultured cardiomyocytes, gene transfer or treatment

T1 sequence (O95819 whole entry): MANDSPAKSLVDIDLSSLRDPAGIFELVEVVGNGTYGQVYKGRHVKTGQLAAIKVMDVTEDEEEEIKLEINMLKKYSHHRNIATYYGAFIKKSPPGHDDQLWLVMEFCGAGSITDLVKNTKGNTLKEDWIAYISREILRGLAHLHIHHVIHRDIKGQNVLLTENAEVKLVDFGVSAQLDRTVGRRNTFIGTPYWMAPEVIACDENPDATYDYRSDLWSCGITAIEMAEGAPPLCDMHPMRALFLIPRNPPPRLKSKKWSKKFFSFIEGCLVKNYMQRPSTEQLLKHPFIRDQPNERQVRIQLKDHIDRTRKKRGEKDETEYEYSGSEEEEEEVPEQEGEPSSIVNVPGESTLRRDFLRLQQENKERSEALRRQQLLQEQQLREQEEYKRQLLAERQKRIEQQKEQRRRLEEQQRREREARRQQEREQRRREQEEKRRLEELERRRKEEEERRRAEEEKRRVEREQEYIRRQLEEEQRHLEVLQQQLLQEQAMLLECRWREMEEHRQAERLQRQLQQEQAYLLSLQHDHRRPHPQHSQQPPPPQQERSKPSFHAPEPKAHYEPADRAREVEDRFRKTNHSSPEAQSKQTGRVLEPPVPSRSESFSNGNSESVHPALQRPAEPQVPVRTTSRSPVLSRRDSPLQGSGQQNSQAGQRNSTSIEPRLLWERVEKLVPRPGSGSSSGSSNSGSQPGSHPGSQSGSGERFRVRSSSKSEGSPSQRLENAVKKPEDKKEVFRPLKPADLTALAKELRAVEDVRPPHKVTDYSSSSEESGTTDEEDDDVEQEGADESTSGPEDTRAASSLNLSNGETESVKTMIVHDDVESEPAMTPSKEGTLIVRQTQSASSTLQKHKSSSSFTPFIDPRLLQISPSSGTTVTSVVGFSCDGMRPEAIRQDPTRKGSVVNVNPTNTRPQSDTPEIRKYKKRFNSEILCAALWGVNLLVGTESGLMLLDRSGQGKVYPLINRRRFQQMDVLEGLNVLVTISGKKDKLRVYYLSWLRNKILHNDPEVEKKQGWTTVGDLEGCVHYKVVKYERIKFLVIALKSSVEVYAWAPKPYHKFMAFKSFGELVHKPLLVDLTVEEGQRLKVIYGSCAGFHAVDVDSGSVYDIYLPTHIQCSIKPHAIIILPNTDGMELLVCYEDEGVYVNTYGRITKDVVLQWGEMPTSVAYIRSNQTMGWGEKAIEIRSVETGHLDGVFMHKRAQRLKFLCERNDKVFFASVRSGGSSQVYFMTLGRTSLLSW

Molecule: OO [H2O2]
- HGK activity after agonist (HGK): activated
- time to decrease of endogenous TRF2 (TRF2 [1]; cardiomyocytes, 100 μM H2O2): ≤ 2 h
- apoptosis (hypodiploid DNA) (cardiomyocytes; [10]): induced
- PARP cleavage [2, 10]: induced
- telomere erosion / shortening (telomere length [3]): induced

Molecule: 5′-CCTGGGCTGCCGGCTCGAGC-3′ (all phosphorothioate, sugars by position and methylation of C not given here) [antisense TRF2]
- apoptosis [4]: apoptosis
- induction of HGK activity (HGK; antisense suppression of endogenous TRF2, antisense GFP as control): more than 50%
- increase of HGK kinase activity (HGK; mouse cardiomyocytes, antisense oligo transfection, HGK adenovirus): 1.5 fold
- TRF2 protein level (TRF2 [5]): specifically reduced
- endogenous TRF2 expression (TRF2 [6]): inhibited endogenous TRF2 expression effectively
- Chk2 activation (Chk2): Chk2 activation
- telomere shortening (telomere length [7]): telomere shortening
- PARP cleavage [8]: PARP cleavage

Molecule: COc1cccc2c1C(=O)c1c(O)c3c(c(O)c1C2=O)C[C@@](O)(C(=O)CO)C[C@@H]3O[C@H]1C[C@H](N)[C@H](O)[C@H](C)O1 [doxorubicin]
- survival as of day 16 ([9]; littermate controls): 7%
- mice that had died by 7 days after injection ([9]; non-transgenic mice, n=14): 63%
- survival as of day 16 ([9]; αMHC-TRF2 mice): 36%
- deaths by 7 days after injection ([9]; αMHC-TRF2 mice, n=14): no deaths
- TRF2 protein expression decreased (TRF2 [1]; cardiac myocytes, 1 μM doxorubicin, within 8 hr): 50%
- induction of cardiac myocyte apoptosis (hypodiploid myocytes) (cardiomyocytes; doxorubicin administered to myocytes): induced cardiac myocyte apoptosis
- time until loss of PARP (caspase-3 activation) was comparable to the TRF2 loss ([2]; cardiac myocytes, 1 μM doxorubicin): 48 h

Molecule: CCCCCCCCCCCCC/C=C/[C@@H](O)[C@H](CO)NC(C)=O [ceramide, N-acetyl-D-sphingosine]
- HGK activity after agonist (HGK): activated further; also recorded: potent activator of HGK
- TRF2 levels (TRF2 [1]; viral delivery or ceramide treatment): reduced TRF2 levels
- increase in hypodiploid myocytes (cardiomyocytes; ceramide treatment): 20 fold

From patent US20040242461A1, “Modulators of telomere stability” (priority 2003, published 2004)
